Here are results for 7 molecules from patent US11771779B2, “Non-metallic magnetic resonance contrast agent” (HADASIT MEDICAL RESEARCH SERVICES & DEVELOPMENT LIMITED, priority 2018, dated 2023).

Each structure is given as a SMILES string. Where two headings read alike, the source gives them in different places.

On data set [1], the source says: The dissolution process is detailed in the results section. […] Unless otherwise stated, the dissolved hyperpolarized solution was directly injected to a screw cup 10 mm NMR tube in a 5.8T NMR spectrometer via a PTFE line of about 2.4 m length with 3 s of He(g) chase. This line was wrapped with a heating tape (MRC, Holon, Israel) that enabled control over the temperature of the dissolution medium arriving to the NMR tube directly or to a collection tube in the fringe field of the spectrometer. ^15N-Nuclear Magnetic Resonance (NMR) spectra were continuously recorded immediately at the start of the dissolution process. […] In the experiments in body fluids and in experiments in which the hyperpolarized solution was first cooled to temperatures below room temperature, the dissolution media was first collected in a conical tube placed in the spectrometer's fringe field, and then was injected by syringe via a PEEK line to the NMR tube that was placed in the magnet.
For heating this hyperpolarized solution prior to arrival to the NMR tube, the PTFE line leading the hyperpolarized solution out of the spin polarization device was wrapped with a heating tape connected to a temperature controller (MRC, Holon, Israel). In this way, hyperpolarized solutions at temperatures higher than 26° C. could be obtained. For cooling the hyperpolarized solution, the heating tape was not turned on and the dissolution medium was mixed with 0 to 4 mL of D2O at 2° C. in a collection tube placed in ice-water bath in the fringe field of the magnet, prior to injection.
^15N-NMR spectroscopy was performed in a 5.8T NMR spectrometer (RS2D, Mundolsheim, France), using a 10 mm broad-band NMR probe. The chemical shift scale of the spectra presented herein was calibrated based on a separate measurement of a [^15N2]urea standard sample (4M in H2O:D2O 80:20), carried out prior to hyperpolarized ^15N acquisitions, calibrating the [^15N2]urea signal to −306 ppm (relative to nitromethane). For enhancement factor calculation, the spectra were collected with a high flip angle of […] and a repetition time of 2 s. For T1 calculation, the spectra were acquired with a low flip angle of […] and a longer repetition time of 5-10 s.
The temperature in the NMR tube was continuously monitored using an NMR compatible temperature probe (Osensa, Burnaby, BC, Canada).
Determination of the T1 of the hyperpolarized sites was performed by curve fitting of the signal decay to the following equation: S(t)=S0·e^−t/T^1·(cos θ)^t/TR, in which TR, the time between excitations, and θ, the nutation angle of excitation, are known. Curve fitting was performed using Matlab (Mathworks, Natick, Mass., USA).

Data set [2] is described as follows: T1 of hyperpolarized ^15N sites bound to labile protons upon dissolution in H2O and D2O, 5.8 T. The note with it: for T1 upon dissolution in D2O / T1 upon dissolution in H2O: ≈37° C. (35-40° C.), 5.8 T, n=2; for T1 prolongation D2O versus H2O: deuteration of labile protons; for decrease in polarization during 1 min transfer and administration: entire process at physiological temperatures. It counts as physicochemical.

For data set [3] the following is noted: in vivo; cited from earlier work.
The nature of data set [4]: Temperature dependence of T1 of hyperpolarized [^15N2]urea in D2O. Format: physicochemical. Set-up: T1 Average ± SD: unit not given here. Here is the method: The experiment shown in FIG. 9B clarified the importance of maximizing the T1 of [^15N2]urea for optimal storage of the polarization, in order to expand the time scale in which the hyperpolarized signal from a single dose can be observed in vivo. As for storage there are no limitation to physiological temperatures, the effect of temperature on the T1 of [^15N2]urea was measured. Given the impressive signal afforded by the dDNP process and its long lifetime, it was possible to measure the T1 of the ^15N sites of urea for a range of temperatures with a single sample that was slowly heated or cooled while the temperature was continuously monitored with an NMR compatible temperature probe (FIG. 10A, top). In order to determine the temperature dependent T1, the decay data were retrospectively binned to consecutive 10° C. segments (FIG. 10A, alternating shading indicates different 10° C. segments) and the T for each temperature segment was determined (FIG. 10B, inset).
The hyperpolarized decay acquisitions were carried out with 3-10° excitation angle and 5-20 s repetition time. There was no significant difference in the T determined with different acquisition parameters.
Individual measurements are shown. Each column represents a single hyperpolarized decay, obtained with the same flip angle and repetition time. Using an online measurement of the temperature inside the NMR tube, we could differentiate different temperature regimes within a single decay and thus assess the effect of temperature on T1. T1 values were determined by fitting the equation describing the mono-exponential decay of a hyperpolarized signal: S(t)=S0·e−t/T1·(cos θ)t/TR.
The angle of excitation was determined by calibration of the 90o excitation on a ^15N labeled standard. The error for each individual measurement represents the 95% confidence interval of the curve fit.
The temperature gradient was formed by adding a solution at a temperature different than the spectrometer temperature so that throughout the acquisition the sample slowly cooled/warmed to the spectrometer temperature. […] Variability in the determined T1 values may be due to slight variations in the effective angle of excitation and/or the amount of trace protons present in different samples; indeed when different temperature segments are compared within the same hyperpolarized decay, (i.e. for the same sample on the same day), the dependence of T1 on the temperature can be even more clearly seen. The average and standard deviation of all measurements in the same temperature regime are shown in the column on the right.

This is another data set of the same source.
Data set [5] is described as follows: Liquid state polarization and buildup of [^15N2]urea by dDNP. It counts as physicochemical. The method, then:
The temperature in the NMR tube was continuously monitored using an NMR compatible temperature probe (Osensa, Burnaby, BC, Canada). […] Curve fitting was performed using Matlab (Mathworks, Natick, Mass., USA).

With `O=[15N][O-].[Na+]` [[^15N]nitrite, sodium [^15N]nitrite], the T1 in data set [1] (D2O, n=2) was found to be 14.8 ± 0.6 s; in data set [1] (H2O, n=2), 13.6 ± 0.5 s; in data set [1] (same sample, D2O (co-polarized nitrate and nitrite)), 14 s.
For the molecule `O=C1CCC(=O)[15NH]1` [[^15N]succinimide], in data set [2], the “T1 upon dissolution in D2O” value stood at 215 ± 2 s, the “T1 upon dissolution in H2O” value was found to be 45 ± 3 s and the “T1 prolongation D2O versus H2O” value was 4.8 fold.
Turning to `N[13C](N)=O` [carbon-13 labeled urea, reference compound], the “decrease in polarization during 1 min transfer and administration” value in data set [2] is listed as “≈ 80%”.
Regarding `O=[N+]([O-])O` [nitrate (NO3—), nitrate], in data set [3], the “half-life in the circulation” value is 5 to 6 h.
For the molecule `Cl.N[C@@H](CCCNC(=[15NH])[15NH2])C(=O)O` [[guanido-^15N2]arginine, L-[guanido-^15N2]arginine:HCl], in data set [2], the “T1 upon dissolution in D2O” value was found to be 44 ± 1 s, the “T1 upon dissolution in H2O” value was 6.6 ± 0.3 s and the “T1 prolongation D2O versus H2O” value was 6.7 fold.
Take `O=NO` [Nitrite (NO2), Nitrite]: the “half-life in the circulation” value in data set [3] is 0.333 h.
For the molecule `[15NH2]C([15NH2])=O` [[^15N2]urea], the “T1 upon dissolution in D2O” value in data set [2] was 200 ± 20 s. Moreover, the “T1 upon dissolution in H2O” value in data set [2] turned out to be 33 ± 5 s. Also, the “T1 prolongation D2O versus H2O” value in data set [2] amounted to 6.1 fold. For the same molecule, in data set [2], the “decrease in polarization during 1 min transfer and administration” value is recorded as “≈ 25%”. Besides, the “T1 Average ± SD” value came out at 146 ± 23 in data set [4] (15-25° C., n = 3); 191 ± 33 in data set [4] (25-35° C., n = 4); 226 ± 38 in data set [4] (35-45° C., n = 6); 308 ± 34 in data set [4] (45-55° C., n = 4); 351 ± 40 in data set [4] (55-65° C., n = 4); 382 ± 48 in data set [4] (65-75° C., n = 3). Moreover, the T1 in data set [4] (#1, θ 10°, TR 5 s, 35-45° C.) worked out at 228 ± 4; in data set [4] (#2, θ 3°, TR 10 s, 15-25° C., ± 95% CI of fit), 155 ± 3; in data set [4] (#2, θ 3°, TR 10 s, 25-35° C.) it was 196 ± 8; in data set [4] (#3, θ 10°, TR 10 s, 25-35° C.), 209 ± 2; in data set [4] (#3, θ 10°, TR 10 s, 35-45° C.), 266 ± 4; in data set [4] (#3, θ 10°, TR 10 s, 45-55° C.), 355 ± 8. Moreover, the T1 in data set [4] (#3, θ 10°, TR 10 s, 55-65° C.) amounted to 382 ± 17; in data set [4] (#4, θ 10°, TR 10 s, 25-35° C.), 216 ± 2; in data set [4] (#4, θ 10°, TR 10 s, 35-45° C.), 272 ± 3; in data set [4] (#4, θ 10°, TR 10 s, 45-55° C.) it was 340 ± 5; in data set [4] (#4, θ 10°, TR 10 s, 55-65° C.) it was 386 ± 12; in data set [4] (#4, θ 10°, TR 10 s, 65-75° C.), 416 ± 23. Further, the T1 in data set [4] (#5, θ 10°, TR 10 s, 35-45° C.) was determined as 216 ± 5; in data set [4] (#5, θ 10°, TR 10 s, 45-55° C.), 273 ± 4; in data set [4] (#5, θ 10°, TR 10 s, 55-65° C.) it was 305 ± 14; in data set [4] (#5, θ 10°, TR 10 s, 65-75° C.), 327 ± 16; in data set [4] (#6, θ 10°, TR 10 s, 15-25° C.), 112 ± 6; in data set [4] (#6, θ 10°, TR 10 s, 25-35° C.), 143 ± 1. Moreover, the T1 in data set [4] (#7, θ 10°, TR 15 s, 35-45° C.) worked out at 198 ± 2; in data set [4] (#8, θ 10°, TR 15 s, 35-45° C.) it was 176 ± 5; in data set [4] (#9, θ 5°, TR 20 s, 45-55° C.), 284 ± 6; in data set [4] (#9, θ 5°, TR 20 s, 55-65° C.), 332 ± 11; in data set [4] (#9, θ 5°, TR 20 s, 65-75° C.) it was 404 ± 41; in data set [4] (#10, θ 10°, TR 10 s, 15-25° C.), 163 ± 20. The T1 result in data set [4] (D2O, 65-75° C. (above 65° C.)) was “more than 6 min”; in data set [4] (deuterated water, physiological temperatures), above 3 min. The “T1 in whole blood” value runs as follows: (2nd injection) 12.0 ± 0.2 s; (3rd injection) 12.9 ± 0.6 s; (37° C.) 10 s. The “T1 in whole human blood” value (first decay curve, D2O:whole blood 1:10, 95% CI) amounted to 9.8 ± 0.2 s. Besides, the polarization buildup time in data set [5] (R^2=0.93) came to 2.3 ± 1.2 h. Further, the maximum polarization in data set [5] (liquid state polarization after varying irradiation times, 1.4-1.5 K) is recorded as 5.1±1.6%.
